In patent publication US10792268B2, “Methods of sustaining dietary ketosis and its effects on lipid profile” (priority 2014, dated 2020):
Marks after values point to notes of the source that are not given here.

Key:
Assay type in all cases: in vivo, Sprague-Dawley rats
[1] = Lipid panel (total cholesterol, HDL, triglycerides) at week 0 and week 4; conditions: rats, after 4-week chronic dosage, 5 g/kg
Method: (§1) Adult male Sprague-Dawley rats (n=74), 275-325 grams, were obtained from Harlan, and randomly assigned to the following groups: control (water), R,S-1,3-butanediol (BD), or R,S-1,3-butanediol acetoacetate diester (KE). Rats were treated daily with 5 g/kg intragastric gavage of BD or KE for days 1-28. Animals were weighed once per week to maintain accurate dosage using the Mittler Toledo SB16001 scales. Gavage was given between 10 am-1 pm daily to eliminate variance based on regular eating patterns. Diets were not restricted for this study.
(§2) Once a week, animals were fasted, with water still available for 4 hours prior to intragastric gavage to eliminate blood glucose and ketone variance of regular eating habits. Whole blood samples (10 μl) were acquired from the saphenous vein for analysis of glucose and βHB utilizing the commercially available glucose and ketone monitoring system Precision Xtra™ (Abbott Laboratories, Abbott Park, Ill.) at time 0, 0.5, 1, 4, 8, and 12 hours after test substance administration, or until βHB returned to baseline. On Day 0 (Week 0) and Day 28 (Week 4), whole blood samples (10 μL) were acquired for analysis of total cholesterol, HDL, and triglycerides for a lipid panel utilizing the commercially available home cholesterol analyzer Cardio Chek™ (Polymer Technology Systems, Inc., Indianapolis, Ind.) at time 0.

[2] = Harvested organ weights at week 4; conditions: rats, versus control; for liver weight: week 4 harvested organs
Method: Animals treated from Example 1 were sacrificed by CO2 between 4-8 hours after gavage-treatment at the end of 4 weeks (28 days at the dose of 5-10 g/kg), which were determined to be peak ketone elevation. Brain, Lungs, Liver, Kidneys, Spleen and Heart were harvest and weighed using AWS-1000 1 kg portable digital scale (AWS, Charleston, S.C.). Organs were then either flash frozen in liquid nitrogen or preserved in paraformaldehyde for future analysis.

[3] = system: hepatocyte cell nuclei; experiment: Liver histology (H&E stain) after 28 days of ketone supplementation; conditions: for fat deposits in liver sections / hepatocyte nucleus number, maximum / hepatocyte nucleus number, minimum / number of RBCs and capillaries in liver sections compared to control / hepatocyte nucleus number, average: rats, 28 days gavage at maximum tolerable dose (5-10 g/kg); for number of RBCs and capillaries in liver sections compared to control: data not shown; for hepatocyte nucleus number, average: minimum 5 images/animal, 5 animals/group; for hepatocyte nucleus number, significance (p, unpaired t-test versus control): significant if p < 0.05
Method: Livers from rats administered maximum tolerable dose of ketone supplementation were assessed via histology. The livers from rats treated 4-weeks with ketone supplementation appeared normal in color, size and texture in all groups upon harvesting. The livers were sectioned for histology and stained with Hematoxylin and Eosin (H&E stain), and analyzed by a trained pathologist to assess histopathological changes, including changes in liver cytoarchitecture, presence of steatosis, steatofibrosis, cell nuclei density, capillary density, presence of red blood cells (RBCs) and signs of inflammatory processes (e.g. macrophages).
The representative images are liver sections of Sprague-Dawley that were gavaged daily with water; 1,3-butanediol (BD); Ketone Ester (KE);) for 28 days at the maximum tolerable dose (5-10 g/kg). […] It should be noted that 1,3-butanediol has alcohol-like properties and requires hepatocytes to enzymatically metabolize the di-alcohol through cytosolic alcohol dehydrogenase and the induction of cytochrome p450 enzymes for conversion to βHB. The processes are associated with an increase in liver metabolism and blood flow, possibly resulting in greater number of RBCs and capillaries. There was also a modest, but statistically significant increase in hepatocyte cell nuclei, seen in Table 2, although no indications of liver damage, inflammation, fibrosis or presence of Mallory-Denk bodies were observed.

[4] = Blood glucose levels after intragastric gavage of ketone supplements; conditions: rats; for blood glucose levels, overall over the 4 weeks: 5 g/kg gavage daily; for blood glucose levels, week 1: FIG. 4(B)
Method: as §1, §2

[5] = Blood ketone (βHB) levels after intragastric gavage of ketone supplements; conditions: rats; for duration of elevated blood ketones (starting at 30 min): 5 g/kg for all four weeks
Method: as §1, §2

[6] = Change of body weight over 4 weeks of ketone supplementation; conditions: rats, 5 g/kg gavage daily, weekly weighing over 4 weeks
Method: as §1
Animal weights were obtained weekly (Mittler Toledo SB16001 scales).

[7] = Global metabolic profiling of serum and hippocampus (GC/MS and LC/MS/MS) after 28-day treatment; conditions: rats
Method: Rats were treated as described in Example 1, and brain and serum samples were extracted and prepared for analysis using a standard solvent extraction method (Metabolon Inc., Durham, N.C.) at 28 days after initiation of treatment. The extracted samples were split into equal parts for analysis on the GC/MS and LC/MS/MS platforms. Instrument variability was determined by calculating the median relative standard deviation (RSD) for the internal standards that were added to each sample prior to injection into the mass spectrometers.
A total of 388 and 290 compounds were identified in serum and hippocampus samples, respectively. […] The less robust changes in the hippocampal tissue may have been due to the time frame needed to dissect the hippocampal tissue from the brain prior to flash freezing (2-4 minutes). Random Forest (RF) is a supervised classification technique reporting on the consensus of a large number of decision trees. In this study, the serum and hippocampus profiles of animals subjected to different dietary treatments were classified in order to: 1) assess the capacity to distinguish between dietary treatment on the basis of global metabolic profiles and 2) identify biochemicals important to the classification. A classification accuracy of 33% is expected by random chance when comparing three groups. For this study, classification of serum and hippocampus samples was 100% and 83% accurate, respectively, in correctly categorizing samples into their proper groups. […] In serum, the biochemical key to classifying the groups included biomarkers related to ketones, energy metabolites, medium-chain fatty acids, and ketones were key factors for hippocampal group classification.

[8] = 5 g/kg gavage, FIG. 3 (text: week 6; legend: week 4)

Row | Structure (SMILES) | Triglyceride levels at week 4 [1] | liver weight [2] | fat deposits in liver sections [3] | hepatocyte nucleus number, maximum [3] | hepatocyte nucleus number, minimum [3] | number of RBCs and capillaries in liver sections compared to control [3] | hepatocyte nucleus number, average [3] | hepatocyte nucleus number, significance (p, unpaired t-test versus control) [3] | blood glucose levels, overall over the 4 weeks [4] | blood glucose levels, week 1 ([4]; 5 g/kg gavage) | duration of elevated blood ketones (starting at 30 min) [5] [h] | body weight increase versus control [6] | further results
1 | C[C@H](O)CCO [BD, R,S-1,3-butanediol] | mildly elevated | not a significant change in liver weight | the most prevalence of fat deposition | 120 | 70 | trend for greater number of RBCs and capillaries | 93.56 | 0.585 | did not appear to drastically affect glucose levels | non-significant reduction | 8 | modestly decreased body weight increases | non-liver organ weight ([2]; week 4 harvested organs (brain, lungs, kidneys, spleen, heart)): no significant change in non-liver organ weight; fat deposits in liver sections ([3]; listed as BE): evident; ketone bodies, peak at 4 hours ([5]; 5 g/kg gavage, FIG. 1(A), week 0): 1.0 mM/L; ketone bodies, initial peak at 30 minutes [5, 8]: around 0.8 mM/L; ketone bodies, second peak at 8 hours [5, 8]: around 0.8 mM/L; time of ketone body peak after treatment ([5]; 5 g/kg intragastric gavage daily, overall trend): 30 min
2 | CC(=O)CC(=O)OCCC(C)OC(=O)CC(C)=O (centres unmarked) [KE, R,S-1,3-butanediol acetoacetate diester] | little change | statistically significant reduction in liver weight | evident | 141 | 83 | trend for greater number of RBCs and capillaries | 107.80^a | 0.002 | reductions in glucose levels began at 30 minutes after treatment through 4 hours | continued the trend | 8 | further reduced weight gains compared to BD treatment | blood glucose levels, week 0 ([4]; 5 g/kg gavage, FIG. 4(A)): reduction in glucose levels by 1 hour after treatment; blood glucose levels, week 2 ([4]; 5 g/kg gavage, FIG. 5(A)): enhanced reduction in glucose; blood glucose levels, week 3 ([4]; 5 g/kg gavage, FIG. 5(B)): moderate reductions at 4 hours after treatment; blood glucose levels, week 4 ([4]; 5 g/kg gavage, FIG. 6): reduced glucose levels through 4 hours after treatment; alpha-ketoglutarate, metabolite ratio relative to a standard diet (SD) alone ([7]; 5 g/kg, 28 days, blood serum): 1.98^a; citrate, metabolite ratio relative to a standard diet (SD) alone ([7]; 5 g/kg, 28 days, blood serum): 1.99^a; fumarate, metabolite ratio relative to a standard diet (SD) alone ([7]; 5 g/kg, 28 days, blood serum): 1.92^a; malate, metabolite ratio relative to a standard diet (SD) alone ([7]; 5 g/kg, 28 days, blood serum): 2.03^a; succinate, metabolite ratio relative to a standard diet (SD) alone ([7]; 5 g/kg, 28 days, blood serum): 1.25; brain ketone levels, elevation with respect to controls ([7]; 28-day treatment, hippocampus, FIG. 16): > 2 fold; serum ketone levels, elevation with respect to controls ([7]; 28-day treatment, serum, FIG. 15): > 15 fold
